{"source": "paper PMC7794397", "about": "“Curbing gastrointestinal infections by defensin fragment modifications without harming commensal microbiota” (Communications Biology, 2021)", "key": {"[1]": {"test_system": "P. aeruginosa PAO1", "assay": "Treatment of established biofilms", "assay_type": "cell-based", "design": "viable bacteria in biofilm: unit not given here", "settings": "for viable bacteria in biofilm: 24 h old biofilm, 1 h treatment", "description": "Then, planktonic bacteria were removed by two wash steps with PBS. […] Afterward, adherent bacteria in each well were resuspended, and the number of viable bacteria was determined microbiologically. […] The biofilm degradation assay was performed in agreement with the original report describing this method first."}, "[2]": {"test_system": "S. aureus NCTC8325", "assay": "Bacterial membrane potential (DiOC2(3))", "assay_type": "cell-based", "settings": "30 min of treatment", "description": "For determination of membrane potential changes, S. aureus NCTC8325 was grown to log-phase in LB + 0.1% glucose, harvested and the optical density at 600 nm (OD600) was adjusted to 0.5. Bacteria were incubated with 30 µM 3,3′-diethyloxacarbocyanine iodide (DiOC2(3), Invitrogen™) for 15 min in the dark and treated with serial peptide concentrations for 30 min. The protonophore carbonyl cyanide m-chlorophenyl hydrazone (CCCP, Sigma Aldrich) was used as a positive control and DMSO or 0.01% acetic acid as negative controls. Fluorescence was measured at an excitation wavelength of 485 nm and two emission wavelengths, 530 nm (green) and 630 (nm) red, using a microplate reader (Tecan, Switzerland)."}, "[3]": {"test_system": "C. rodentium strain ICC180", "assay": "Citrobacter rodentium gastrointestinal infection in mice", "assay_type": "in vivo, C57BL/6N mice", "description": "Bioluminescence expressing C. rodentium strain ICC180 was used for all infection experiments. C. rodentium inocula were prepared by culturing bacteria overnight at 37 °C in LB broth with 50 µg/ml kanamycin. Subsequently, the culture was diluted 1:100 in fresh medium, and sub-cultured for 4 h at 37 °C in LB broth. Bacteria were washed twice in phosphate-buffered saline (PBS). Mice were orally inoculated with 10^8 CFU of C. rodentium diluted in 200 µl PBS. Weight of the mice was monitored and feces were collected for measurements of the pathogen burden. After 5 days post infection mice received twice 250 µg peptide solved in 100 µl PBS or only PBS orally. The following day, mice were sacrificed to assess bacterial burden in the lumen and tissues of the cecum and the colon.\nAll mice were euthanized by asphyxiation with CO2 at indicated time points. Intestinal tissues (small intestine, cecum, colon) were removed aseptically. To collect intestinal content, organs were flushed with PBS. Organs were opened longitudinally, cleaned thoroughly with PBS and weighted. Organs and content were homogenized in PBS using a Polytron homogenizer (Kinemtatica). Dilutions of homogenized samples were plated on LB plates containing 50 μg/ml kanamycin to determine CFUs."}, "[4]": {"test_system": "S. aureus NCTC8325", "assay": "Bacterial pore formation (SYTO9/propidium iodide)", "assay_type": "cell-based", "settings": "37.5 µM Pam-3 (4x MIC), 10 min; Syto9 and propidium iodide", "description": "Pore formation was monitored using the Live/Dead BacLight bacterial viability kit (Molecular Probes)[60]. […] Samples were taken after 10 min of peptide treatment, then 0.2 µl of a 1:1 mixture of SYTO9 and propidium iodide (PI) was added and further incubated for 15 min at RT in the dark. […] Images were acquired with an Orca Flash 4.0 V2 camera (Hamamatsu), C Plan-Apo 63x/1.4 Oil DIC and alpha Plan-Apochromat 100x/1.46 Oil Ph3 objectives (Zeiss) and processed using the Zen software package (Zeiss)."}, "[5]": {"test_system": "multidrug resistant bacteria belonging to the ESKAPE pathogen panel", "assay_type": "cell-based", "description": "Bactericidal activity was assessed by broth microdilution assay. […] After incubation, 100 µl of 6% TSB (w/v) were added and absorbance was measured at 600 nm (Tecan, Switzerland) and monitored for 18 h. Afterward, 100 µl per well were plated on LB agar to determine the numbers of viable bacteria microbiologically. Bactericidal activity is expressed as the LC99.9, the lowest concentration that killed ≥99.9 % of bacteria."}, "[6]": {"test_system": "B. subtilis ypuA promoter", "assay": "ypuA promoter luciferase reporter strain (cell envelope stress)", "assay_type": "cell-based", "description": "A specific bacterial reporter strain with the genetic background of Bacillus subitilis 1S34, carrying the promoter of the ypuA gene, fused to the firefly luciferase reporter gene, was used to identify cell envelope-related damage caused by treatment with antimicrobial compounds[31]. The assay was carried out in agreement with former reports describing this method[20],[59]. Bacteria were cultured to an OD600 of 0.9 in LB broth with 5 µg/ml erythromycin at 37 °C and diluted to an OD600 of 0.02. Serial peptide dilutions (0.15–150 µM) were prepared in a microtiter plate and incubated with the adjusted bacterial suspension at 37 °C for 1 h. Subsequently, citrate buffer (0.1 M, pH 5) containing 2 mM luciferin (Iris Biotech, Germany) was added and luminescence was measured using a microplate reader (Tecan, Switzerland)."}, "[7]": {"settings": "two doses of 250 µg orally 5 days p.i., following day, individual animals, N = 11"}}, "note": "Values joined by “and” are separate entries in the source; they are usually repeats but may differ in a detail not shown here. Equal values may be shown once. Residues, ends and D or L forms follow the SMILES beside them. *: point of attachment. Palmitoyl = CCCCCCCCCCCCCCCC(=O)*; AEEA = NCCOCCOCC(=O)O", "data": [{"smiles": "CCCCCCCCCCCCCCCC(=O)NCCOCCOCC(=O)N[C@@H](CCCNC(=N)N)C(=O)NCC(=O)N[C@@H](CCCCN)C(=O)N[C@@H](C)C(=O)N[C@@H](CCCCN)C(=O)N[C@@H](CS)C(=O)N[C@@H](CS)C(=O)N[C@@H](CCCCN)C(=O)O", "note": "[Pam-3] ({Palmitoyl-AEEA}-RGKAKCCK-OH; C-terminus assumed)", "values": [{"measurement": "elimination of bacteria in biofilms (in words)", "setting": "[1]; 300 µM, within 1 h, Kruskal–Wallis p = 0.0074", "value": "eliminated"}, {"measurement": "viable bacteria in biofilm", "setting": "[1]; 9.375 µM Pam-3, experiment 1", "value": 1541667}, {"measurement": "viable bacteria in biofilm", "setting": "[1]; 9.375 µM Pam-3, experiment 2", "value": 3730000}, {"measurement": "viable bacteria in biofilm", "setting": "[1]; 9.375 µM Pam-3, experiment 3", "value": 2210000}, {"measurement": "viable bacteria in biofilm", "setting": "[1]; 18.75 µM Pam-3, experiment 1", "value": 800000}, {"measurement": "viable bacteria in biofilm", "setting": "[1]; 18.75 µM Pam-3, experiment 2", "value": 125000}, {"measurement": "viable bacteria in biofilm", "setting": "[1]; 18.75 µM Pam-3, experiment 3", "value": 1510000}, {"measurement": "viable bacteria in biofilm", "setting": "[1]; 37.5 µM Pam-3, experiment 1", "value": 70000}, {"measurement": "viable bacteria in biofilm", "setting": "[1]; 37.5 µM Pam-3, experiment 2", "value": 21111}, {"measurement": "viable bacteria in biofilm", "setting": "[1]; 37.5 µM Pam-3, experiment 3", "value": 362889}, {"measurement": "viable bacteria in biofilm", "setting": "[1]; 75 µM Pam-3, experiment 1", "value": 1100}, {"measurement": "viable bacteria in biofilm", "setting": "[1]; 75 µM Pam-3, experiment 2", "value": 67067}, {"measurement": "viable bacteria in biofilm", "setting": "[1]; 75 µM Pam-3, experiment 3", "value": 5525}, {"measurement": "viable bacteria in biofilm", "setting": "[1]; 150 µM Pam-3, experiment 1", "value": 333}, {"measurement": "viable bacteria in biofilm", "setting": "[1]; 150 µM Pam-3, experiment 2", "value": 433}, {"measurement": "viable bacteria in biofilm", "setting": "[1]; 150 µM Pam-3, experiment 3", "value": 167}, {"measurement": "viable bacteria in biofilm", "setting": "[1]; 300 µM Pam-3, 1 = no growth, experiment 1", "value": 1}, {"measurement": "viable bacteria in biofilm", "setting": "[1]; 300 µM Pam-3, 1 = no growth, experiment 2", "value": 1}, {"measurement": "viable bacteria in biofilm", "setting": "[1]; 300 µM Pam-3, 1 = no growth, experiment 3", "value": 1}, {"measurement": "effect on membrane potential (in words)", "setting": "[2]", "value": "breakdown of the membrane potential in a concentration-dependent manner"}, {"measurement": "viable Citrobacter in colon content and colon tissue vs PBS (in words)", "setting": "[3]; Mann–Whitney p = 0.0010 and p = 0.0104", "value": "significantly reduced"}, {"measurement": "bacteria in cecum content and cecum tissue vs PBS (in words)", "setting": "[3]; Mann–Whitney p = 0.0104 and p = 0.0473", "value": "reduced the number of bacteria"}, {"measurement": "C. rodentium in cecum content", "setting": "[3]; [7]", "value": "20533880 CFU/g and 455636 CFU/g and 278413400 CFU/g and 15654650 CFU/g and 366007 CFU/g and 16133443 CFU/g and 143723333 CFU/g and 2819342 CFU/g and 262402624 CFU/g and 251094891 CFU/g and 226500566 CFU/g"}, {"measurement": "C. rodentium in cecum tissue", "setting": "[3]; [7]", "value": "490000 CFU/g and 307086614 CFU/g and 556897 CFU/g and 3530864 CFU/g and 21702128 CFU/g and 74039735 CFU/g and 1204147 CFU/g and 780234 CFU/g and 18903800 CFU/g and 586941 CFU/g and 191336 CFU/g"}, {"measurement": "C. rodentium in colon content", "setting": "[3]; [7]", "value": "1762185 CFU/g and 60751515 CFU/g and 1789819 CFU/g and 315018315 CFU/g and 310211946 CFU/g and 1173126615 CFU/g and 2621359 CFU/g and 289220 CFU/g and 25236170 CFU/g and 708075 CFU/g and 1616071 CFU/g"}, {"measurement": "C. rodentium in colon tissue", "setting": "[3]; [7]", "value": "58623.6 CFU/g and 30241621 CFU/g and 100000 CFU/g and 24432209 CFU/g and 42962357 CFU/g and 13239974 CFU/g and 61561.6 CFU/g and 13820.3 CFU/g and 2719752 CFU/g and 44329.9 CFU/g and 628386 CFU/g"}, {"measurement": "pore formation (in words)", "setting": "[4]", "value": "strong influx of PI"}, {"measurement": "effective concentrations (LC99.9) across the panel", "setting": "[5]; 18 different bacteria, three experiments each", "value": "4.69 to 18.75", "unit": "µM"}, {"measurement": "overall measured mean effective concentration", "setting": "[5]; 18 different bacteria, three experiments each, peer review file", "value": 9.38, "unit": "µM"}, {"measurement": "bactericidal activity (in words)", "setting": "[5]; broth microdilution, ESKAPE panel", "value": "highly effective"}, {"measurement": "activation of the ypuA promoter", "setting": "[6]", "value": 2, "unit": "fold"}, {"measurement": "ypuA promoter activation (relative to untreated = 1)", "setting": "[6]; 0.031x MIC Pam-3, 1 h, experiment 1", "value": 1.05}, {"measurement": "ypuA promoter activation (relative to untreated = 1)", "setting": "[6]; 0.031x MIC Pam-3, 1 h, experiment 2", "value": 1.15}, {"measurement": "ypuA promoter activation (relative to untreated = 1)", "setting": "[6]; 0.031x MIC Pam-3, 1 h, experiment 3", "value": 1.17}, {"measurement": "ypuA promoter activation (relative to untreated = 1)", "setting": "[6]; 0.062x MIC Pam-3, 1 h, experiment 1", "value": 1.16}, {"measurement": "ypuA promoter activation (relative to untreated = 1)", "setting": "[6]; 0.062x MIC Pam-3, 1 h, experiment 2", "value": 1.27}, {"measurement": "ypuA promoter activation (relative to untreated = 1)", "setting": "[6]; 0.062x MIC Pam-3, 1 h, experiment 3", "value": 1.36}, {"measurement": "ypuA promoter activation (relative to untreated = 1)", "setting": "[6]; 0.125x MIC Pam-3, 1 h, experiment 1", "value": 1.38}, {"measurement": "ypuA promoter activation (relative to untreated = 1)", "setting": "[6]; 0.125x MIC Pam-3, 1 h, experiment 2", "value": 1.48}, {"measurement": "ypuA promoter activation (relative to untreated = 1)", "setting": "[6]; 0.125x MIC Pam-3, 1 h, experiment 3", "value": 1.76}, {"measurement": "ypuA promoter activation (relative to untreated = 1)", "setting": "[6]; 0.25x MIC Pam-3, 1 h, experiment 1", "value": 2.12}, {"measurement": "ypuA promoter activation (relative to untreated = 1)", "setting": "[6]; 0.25x MIC Pam-3, 1 h, experiment 2", "value": 2}, {"measurement": "ypuA promoter activation (relative to untreated = 1)", "setting": "[6]; 0.25x MIC Pam-3, 1 h, experiment 3", "value": 2.57}, {"measurement": "ypuA promoter activation (relative to untreated = 1)", "setting": "[6]; 0.5x MIC Pam-3, 1 h, experiment 1", "value": 0.23}, {"measurement": "ypuA promoter activation (relative to untreated = 1)", "setting": "[6]; 0.5x MIC Pam-3, 1 h, experiment 2", "value": 0.18}, {"measurement": "ypuA promoter activation (relative to untreated = 1)", "setting": "[6]; 0.5x MIC Pam-3, 1 h, experiment 3", "value": 0.26}, {"measurement": "ypuA promoter activation (relative to untreated = 1)", "setting": "[6]; 1x MIC Pam-3, 1 h, experiment 1", "value": 0}, {"measurement": "ypuA promoter activation (relative to untreated = 1)", "setting": "[6]; 1x MIC Pam-3, 1 h, experiment 2", "value": 0}, {"measurement": "ypuA promoter activation (relative to untreated = 1)", "setting": "[6]; 1x MIC Pam-3, 1 h, experiment 3", "value": 0.02}, {"measurement": "ypuA promoter activation (relative to untreated = 1)", "setting": "[6]; 2x MIC Pam-3, 1 h, experiment 1", "value": 0}, {"measurement": "ypuA promoter activation (relative to untreated = 1)", "setting": "[6]; 2x MIC Pam-3, 1 h, experiment 2", "value": 0}, {"measurement": "ypuA promoter activation (relative to untreated = 1)", "setting": "[6]; 2x MIC Pam-3, 1 h, experiment 3", "value": 0}]}]}
